# Measured values from article PMC2665027 (Biochemistry, 2009).
# Residue numbers refer to the chain shown, from its start.
# Columns and labels:
# [1] = biological target: T1, D183N human arginase I (Homo sapiens, UniProt P05089, D183N); experiment: 14C-urea radioactive arginase assay, D183N human arginase I; type: biochemical; conditions: substrate L-arginine; pH 9.0, room temperature
# T1 sequence (P05089 1-322 D183N): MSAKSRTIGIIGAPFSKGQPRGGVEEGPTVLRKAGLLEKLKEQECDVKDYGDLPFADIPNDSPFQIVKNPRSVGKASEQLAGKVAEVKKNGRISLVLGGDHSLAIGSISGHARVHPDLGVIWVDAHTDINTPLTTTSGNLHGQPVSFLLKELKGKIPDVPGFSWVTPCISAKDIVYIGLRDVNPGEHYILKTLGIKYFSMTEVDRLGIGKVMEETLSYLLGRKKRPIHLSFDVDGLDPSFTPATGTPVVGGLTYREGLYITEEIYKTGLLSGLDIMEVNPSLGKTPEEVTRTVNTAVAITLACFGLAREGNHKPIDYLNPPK
# [2] = biological target: T2, D183A human arginase I (Homo sapiens, UniProt P05089, D183A); conditions: substrate L-arginine; pH 9.0, room temperature
# T2 sequence (P05089 1-322 D183A): T1 sequence (P05089 1-322 D183N) with N183A
# [3] = tested on: wild-type human arginase I; conditions: substrate L-arginine; ref [30] and [48]; cited from earlier work
# [4] = tested on: proclavaminic acid amidinohydrolase; conditions: ref [54]; cited from earlier work
smiles,measurement,setting,value
N=C(N)NCCC[C@H](N)C(=O)O [L-arginine],Km,[1],40 mM
same,kcat,[1],167 s⁻¹
same,kcat,[2],68 s⁻¹
same,Km,[3],1.5 mM
same,kcat,[3],190 s⁻¹
same,substrate acceptance,[4],does not accept L-arginine as a substrate
